Measurements: article PMC6017000, “Distribution Assessments of Coumarins from Angelicae Pubescentis Radix in Rat Cerebrospinal Fluid and Brain by Liquid Chromatography Tandem Mass Spectrometry Analysis” (Molecules : A Journal of Synthetic Chemistry and Natural …, 2018)

Assays:
[1] = Stability of QC samples in aCSF (freeze-thaw, room temperature); format: physicochemical; details: percentage remaining, n = 5; for Stability room temperature: room temperature 24 h; for Stability Freeze-thaw: three freeze-thaw cycles
[2] = Stability of QC samples in rat brain homogenate (freeze-thaw, room temperature); format: physicochemical; details: percentage remaining, n = 5; for Stability room temperature: room temperature 24 h; for Stability Freeze-thaw: three freeze-thaw cycles
[3] = Rat CSF distribution after oral administration of APRE (UPLC-MS/MS); details: for AUC(0-inf) / AUC(0-t) / Cmax / Tmax / half-life: CSF, po, 4 g/kg; for MRM response in CSF: rat CSF after oral APRE
Method: Aliquots of 50 μL CSF samples with IS (10 μL, 200 ng/mL) were extracted with 600 μL ethyl acetate.
The UPLC-MS/MS system consisted of a Shimadzu Nexera UPLC instrument connected to a Shimadzu LCMS-8050 mass spectrometer via the electrospray ionization interface (Shimadzu Corp., Kyoto, Japan). Samples were separated on an ACQUITY UPLC BEH RP18 column (2.1 × 100 mm, 1.7 µm, Waters, Milford, MA, USA) equipped with a BEH RP18 guard column (2.1 × 5 mm, 1.7 µm, Waters, Milford, MA, USA). The column temperature was 30 °C, and the flow rate was 0.4 mL/min. The sample injection volume was 5 µL. The mobile phases consisted of 0.1% (v/v) formic acid in water (A) and ACN (B). […] The precursor ion, product ion, Q1, Q3, CE and DT were optimized.
(§1) The time schedule included 9 time-points, and six rats were sampled at each time-point. The rats were fasted overnight with free access to water before the experiment. APRE was suspended with the normal saline and orally administered to the rats at a single dose of 4 g/kg. The animals had free access to water during the experiment.
Rats were anesthetized by an intraperitoneal dose of chloral hydrate (350 mg/kg) at 0.25, 0.5, 1, 1.5, 2, 4, 6, 8, 12 h after oral administration of APRE. A dorsal midline cutaneous incision was made, and the muscle at the craniocervical junction was bluntly dissected to expose the atlanto-occipital membrane. The cisterna magna was punctured with a thin syringe needle, and a microinjector connected with the needle was used to collect the interior CSF carefully [27]. Clear CSF was transferred to a clean microtube and frozen at −80 °C until further use. Blood contaminated samples were excluded.
(§2) Results were expressed as the mean ± standard deviation (SD). The UPLC-MS/MS data were processed with Labsolutions 5.65 software (Shimadzu Corp., Kyoto, Japan). The pharmacokinetic parameters were calculated with the Drug and Statistics 2.0 software (Mathematical Pharmacology Professional Committee of China, Shanghai, China).

[4] = Rat brain distribution after oral administration of APRE (UPLC-MS/MS); details: for AUC0→t / AUC0→∞ / CLz/F / Vz/F: rat brain, oral APRE 4 g/kg, mean ± SD, n = 6; for Tmax / half-life: brain; for Tmax / half-life / Kp: po, 4 g/kg; for Kp: brain/plasma
Method: Each weighed brain sample was homogenized with a 2-fold volume of normal saline solution. IS solution (10 μL, 200 ng/mL) was added to 300 μL of the homogenate. The mixture was then extracted with a 3-fold volume of ethyl acetate. The mixture was vortexed for 1 min and centrifuged at 16,000× g for 10 min. The supernatant was transferred out and dried under a gentle constant flow of nitrogen. The residue was then dissolved with 100 μL of MeOH and ultrasonically (power 250 W, frequency 40 KHz) extracted for 10 min. After centrifugation at 16,000× g for 10 min, the supernatant was drawn out into a clean vial, and 5 μL of each were injected into the UPLC–MS/MS system for analysis.
The UPLC-MS/MS system consisted of a Shimadzu Nexera UPLC instrument connected to a Shimadzu LCMS-8050 mass spectrometer via the electrospray ionization interface (Shimadzu Corp., Kyoto, Japan). Samples were separated on an ACQUITY UPLC BEH RP18 column (2.1 × 100 mm, 1.7 µm, Waters, Milford, MA, USA) equipped with a BEH RP18 guard column (2.1 × 5 mm, 1.7 µm, Waters, Milford, MA, USA). The column temperature was 30 °C, and the flow rate was 0.4 mL/min. The sample injection volume was 5 µL. The mobile phases consisted of 0.1% (v/v) formic acid in water (A) and ACN (B). The LC gradient elution program and mass working parameters were the same as our previous report [6]. […] The precursor ion, product ion, Q1, Q3, CE and DT were optimized.
as §1
Cardiac perfusion was carried out quickly with physiological saline after CSF collection at each time-point. The rat brains were separated, weighed and then stored at −80 °C until treatment.
as §2

Stability room temperature ([1]; aCSF QC 40 ng/mL) | Stability Freeze-thaw ([1]; aCSF QC 40 ng/mL) | Stability room temperature ([1]; aCSF QC 80 ng/mL) | Stability Freeze-thaw ([1]; aCSF QC 80 ng/mL) | Stability room temperature ([2]; rat brain QC 80 ng/mL) | Stability Freeze-thaw ([2]; rat brain QC 80 ng/mL) | Stability room temperature ([2]; rat brain QC 160 ng/mL) | Stability Freeze-thaw ([2]; rat brain QC 160 ng/mL) | AUC(0-inf) ([3]; rat) | AUC(0-t) ([3]; rat) | Cmax ([3]; rat) | Tmax ([3]; rat) | half-life ([3]; rat) | AUC0→t [4] | AUC0→∞ [4] | CLz/F [4] | Vz/F [4] | Tmax ([4]; rat) | half-life ([4]; rat) | MRM response in CSF [3] | Compound | also measured
98.36±3.57% | 96.98±5.79% | 94.12±6.94% | 86.27±13.45% | 99.53±12.87% | 96.22±7.77% | 96.99±3.28% | 96.30±8.22% | 51.3 ± 17.5 ng·h/mL | 20.4 ± 6.16 ng·h/mL | 4.49 ± 1.05 ng/mL | 4.67 ± 1.63 h | 3.52 ± 2.04 h | 351.63 ± 65.06 µg·h/kg | 371.95 ± 69.76 µg·h/kg | 2.88 ± 0.58 g/h/kg | 8.86 ± 3.08 g/kg | 0.33 ± 0.13 h | 2.15 ± 0.67 h | – | O=c1ccc2cc3ccoc3cc2o1 [Compound 1, psoralen] | Stability room temperature ([1]; aCSF QC 10 ng/mL): 97.19±5.40%; Stability Freeze-thaw ([1]; aCSF QC 10 ng/mL): 96.14±6.21%; Stability room temperature ([2]; rat brain QC 10 ng/mL): 101.36±7.46%; Stability Freeze-thaw ([2]; rat brain QC 10 ng/mL): 97.11±8.58%; total amount percentage of CSF/plasma ([3]; (0.48 × AUC0→∞/CSF)/(16 × AUC0→∞/plasma), rat, oral APRE): greater than 1%; Kp ([4]; rat): 0.56
94.61±4.23% | 93.24±6.30% | 99.54±7.55% | 97.23±5.17% | 86.01±3.16% | 85.30±8.42% | 86.84±6.63% | 90.70±9.46% | 41.3 ± 5.77 ng·h/mL | 27.1 ± 2.26 ng·h/mL | 3.95 ± 0.24 ng/mL | 1.46 ± 0.84 h | 6.72 ± 1.95 h | 418.20 ± 93.60 µg·h/kg | 449.85 ± 97.52 µg·h/kg | 3.22 ± 0.85 g/h/kg | 10.76 ± 4.73 g/kg | 1.21 ± 1.53 h | 2.34 ± 1.04 h | – | COc1c2ccoc2cc2oc(=O)ccc12 [Compound 3, bergapten] | Stability room temperature ([1]; aCSF QC 5 ng/mL): 106.76±8.57%; Stability Freeze-thaw ([1]; aCSF QC 5 ng/mL): 92.34±7.48%; Stability room temperature ([2]; rat brain QC 5 ng/mL): 88.02±2.73%; Stability Freeze-thaw ([2]; rat brain QC 5 ng/mL): 89.97±6.29%; Kp ([4]; rat): 0.08
– | – | – | – | 92.73±3.53% | 94.79±6.28% | 91.16±4.37% | 90.93±4.84% | – | – | – | – | – | – | – | – | – | – | – | under LLOQ | C/C=C(/C)C(=O)OC(C)(C)[C@@H]1Cc2c(ccc3ccc(=O)oc23)O1 [Compound 7, columbianadin] | Stability room temperature ([2]; rat brain QC 10 ng/mL): 96.82±4.84%; Stability Freeze-thaw ([2]; rat brain QC 10 ng/mL): 101.64±6.63%; time after oral administration within which detected in brain ([4]; rat brain after oral APRE, MRM response under LLOQ at following time points): ≤ 4 h
95.09±3.26% | 94.73±7.34% | 103.37±5.33% | 95.96±5.37% | 96.02±6.30% | 94.94±10.27% | 97.99±6.44% | 102.42±7.10% | 73.6 ± 11.8 ng·h/mL | 54 ± 8.2 ng·h/mL | 7.47 ± 1.69 ng/mL | 2 ± 1.14 h | 6.32 ± 1.95 h | 313.39 ± 59.25 µg·h/kg | 397.36 ± 66.83 µg·h/kg | 2.04 ± 0.34 g/h/kg | 14.45 ± 3.95 g/kg | 0.96 ± 0.86 h | 4.91 ± 0.91 h | – | CC(C)(O)[C@H](O)COc1c2ccoc2cc2oc(=O)ccc12 [Compound 8, oxypeucedanin hydrate] | Stability room temperature ([1]; aCSF QC 5 ng/mL): 96.96±3.22%; Stability Freeze-thaw ([1]; aCSF QC 5 ng/mL): 97.57±5.59%; Stability room temperature ([2]; rat brain QC 5 ng/mL): 97.72±9.35%; Stability Freeze-thaw ([2]; rat brain QC 5 ng/mL): 96.57±11.87%; log BBexpt. ([4]; log (AUC0→∞/brain/AUC0→∞/plasma), rat, oral APRE): −0.16
– | – | – | – | – | – | – | – | – | – | – | – | – | – | – | – | – | – | – | under LLOQ | O=c1ccc2ccc(O)cc2o1 [umbelliferone] | MRM response in brain ([4]; rat brain after oral APRE): under LLOQ

Compound | Stability room temperature ([1]; aCSF QC 40 ng/mL) | Stability Freeze-thaw ([1]; aCSF QC 40 ng/mL) | Stability room temperature ([1]; aCSF QC 80 ng/mL) | Stability Freeze-thaw ([1]; aCSF QC 80 ng/mL) | Stability room temperature ([2]; rat brain QC 80 ng/mL) | Stability Freeze-thaw ([2]; rat brain QC 80 ng/mL) | Stability room temperature ([2]; rat brain QC 160 ng/mL) | Stability Freeze-thaw ([2]; rat brain QC 160 ng/mL) | AUC(0-inf) ([3]; rat) | AUC(0-t) ([3]; rat) | Cmax ([3]; rat) | Tmax ([3]; rat) | half-life ([3]; rat) | AUC0→t [4] | AUC0→∞ [4] | CLz/F [4] | Vz/F [4] | Tmax ([4]; rat) | half-life ([4]; rat) | MRM response in CSF [3] | also measured
O=c1ccc2c(O)c3ccoc3cc2o1 [bergaptol] | – | – | – | – | – | – | – | – | – | – | – | – | – | – | – | – | – | – | – | under LLOQ | MRM response in brain ([4]; rat brain after oral APRE): under LLOQ
